From patent publication US9505761B2, “Bicyclic compounds and their use as antibacterial agents and beta-lactamase inhibitors” (FEDORA PHARMACEUTICALS INC., priority 2011, dated 2016)

What was measured:
Assay in all cases: β-lactamase inhibitory activity, spectrophotometric, nitrocefin
Type in all cases: biochemical
[1] = biological target: CMY-2 (Klebsiella pneumoniae, UniProt Q48434)
Description: (§1) The inhibitory activities of present compounds against various enzymes were measured by spectrophotometric assay using […] and using nitrocefin as a substrate (J. Antimicrob. Chemother., 28, pp 775-776 (1991)). The concentration of inhibitor (IC50) which inhibits by 50% the reaction of hydrolysis of nitrocefin by the enzyme is determined.

[2] = biological target: CTX-M-9 (Escherichia coli, UniProt Q9L5C8)
Description: as §1

[3] = biological target: KPC-2 (Klebsiella pneumoniae, UniProt Q9F663)
Description: as §1

[4] = biological target: TEM-1 (Escherichia coli, UniProt P62593); conditions: nitrocefin substrate, 490 nM as printed
Description: as §1

**Q.** Which IC50 [1] does the source give for `O=C(NO[C@H]1CCNC1)[C@@H]1CC[C@@H]2CN1C(=O)N2OS(=O)(=O)O` [Ex. 2, (2S,5R)-7-oxo-N-[(3S)-pyrrolidin-3-yloxy]-6-(sulfooxy)-1,6-diazabicyclo[3.2.1]octane-2-carboxamide] here?
**A.** 0.032 ± 0.003 µM

**Q.** And the IC50 [2]?
**A.** 0.127 ± 0.009 µM

**Q.** And the IC50 [3]?
**A.** 0.073 ± 0.007 µM

**Q.** And the IC50 [4]?
**A.** 0.136 ± 0.012 µM
